Results on 4 compounds are retold here after patent publication US20010041745A1, “Methods for increasing levels of acetylcholine” (priority 1999, published 2001).

Counter-ions that a name gives are not always drawn.

For assay [1], the system named is choline acetyltransferase (ChAT). The assay can be described thus: ChAT activity in hippocampus and frontal cortex homogenates of ovariectomized (OVX) rats, radio-labelled assay of acetylcholine bio-synthesis. The settings on record: dosed daily s.c. or oral gavage for 10 days; for levels of ChAT, difference from the sham controls: same doses as E1; for levels of ChAT versus the OVX controls: tamoxifen 3 or 10 mg/kg/day, raloxifene hydrochloride 3 mg/kg/day, estradiol benzoate 0.03 or 0.3 mg/kg/day. It counts as in vivo, female Sprague-Dawley rats. The method, then:
Forty female Sprague-Dawley rats (weight range of 300 to 325 g, six months old) are obtained from Harlan. The animals are either bilaterally ovariectomized (OVX) or exposed to a Sham surgical procedure, and then shipped after about one week. Upon arrival, they are housed in metal hanging cages in groups of 3 or 4 per cage and have ad libitum access to food and water for one week. Room temperature is maintained at 22.20±1.7° C. with a minimum relative humidity of 40%. The photoperiod in the room is 12 hours light and 12 hours dark.
The animals are dosed daily by subcutaneous injection or oral gavage with either tamoxifen, at 3 mg/kg/day or 10 mg/kg/day in a vehicle containing 10% cyclodextrin, raloxifene hydrochloride, at 3 mg/kg/day in a vehicle containing 10% cyclodextrin, estradiol benzoate at 0.03 or 0.3 mg/kg/day, or vehicle control. Animals were treated for 10 days. There are twenty animals per each dosing regimen. At the appropriate time intervals, the animals are sacrificed and their brains dissected. The particular portions of the brains are homogenized and assayed. Homogenates from the hippocampus and frontal cortex were processed and determination of ChAT activity was made by a radio-labelled assay of the bio-synthesis of acetylcholine. This procedure may be found in Schoepp et al., J. Neural Transmiss., 78:183-193, 1989, the teachings of which are incorporated by reference.

Assay [2] can be described thus: Amelioration of Alzheimer's disease in post-menopausal women after chronic administration. The settings on record: post-menopausal women with Alzheimer's disease; 20 mg per day, oral, 2-12 months. It counts as in vivo, human. From the text: Thus, the current invention provides methods for the treatment and prophylaxis of syndromes related to the loss of memory, learning, and cognitive function, often seen in women who are estrogen deprived, especially post-menopausal women. An example of such a syndrome is senile dementia of the Alzheimer's type. Beneficial effects, such as a decrease in memory loss, associated with administration of a compound of this invention become apparent after chronic administration.

Assay [3] in a line: Prophylactic use: cognitive and memory function by standard tests in peri- or post-menopausal women. It counts as in vivo, human. The settings on record: 20 mg/day, oral, 1-5 years. The procedure:
The methods of the present invention may also be employed in a prophylactic modality. […] Following the establishment of this baseline, the women are administered tamoxifen at 20 mg/day, via the oral route, for a period 1-5 years.

In assay [4] the test system is ChAT. The settings on record: rats; literature (Luine et al. 1980, Luine 1985, Singh et al. 1994); cited from earlier work.

On to `CC/C(=C(\c1ccccc1)c1ccc(OCCN(C)C)cc1)c1ccccc1` [tamoxifen], for which, in assay [1], the “levels of ChAT, difference from the sham controls” value (“levels of ChAT, difference” for short) is “insignificant difference” and the “levels of ChAT versus the OVX controls” value is given as “significantly (p<0.05) increased levels of ChAT”. Also, the “effect on Alzheimer's disease” value in assay [2] was “amelioration of their disease”. Besides, the “cognitive and memory functions relative to matched patients given placebo” value in assay [3] is given as “decrease in loss of these functions”.
Take `O=C(c1ccc(OCCN2CCCCC2)cc1)c1c(-c2ccc(O)cc2)sc2cc(O)ccc12` [raloxifene hydrochloride]: in assay [1], the “levels of ChAT, difference” value was “insignificant difference” and the “levels of ChAT versus the OVX controls” value is “significantly (p<0.01) increased levels of ChAT”.
On to estrogen, for which, in assay [4], the “level of acetylcholine / ChAT in the hippocampus” value is recorded as “increases the level of acetylcholine by up-regulating ChAT”.
Take `C[C@]12CC[C@@H]3c4ccc(OC(=O)c5ccccc5)cc4CC[C@H]3[C@@H]1CC[C@@H]2O` [estradiol benzoate]: in assay [1], the “levels of ChAT, difference” value is given as “insignificant difference” and the “levels of ChAT versus the OVX controls” value is recorded as “significantly (p<0.01) increased levels of ChAT”.
